The values below come from patent US20090216117A1, “NOVEL METHOD OF USING TRIACETIN AND AUXILIARY AGENT FOR ULTRASONIC DIAGNOSTIC EXAMINATION” (SHINSHU UNIVERSITY, priority 2005, published 2009).

The nature of data set [1]: Dissolution of triacetin in water. The note with it: ordinary temperature. It is filed as physicochemical. An excerpt: If the auxiliary agent for examination in ultrasonic imaging diagnosis is used in the state of an emulsion, the oil-water interface will reflect ultrasound and affect its propagation. […] For instance, triacetin described in the present invention can be dissolved in water in an amount of about 7% at ordinary temperature without forming an emulsion and this concentration is sufficient for suppressing gastric motility.

The nature of data set [2]: Test 1: viscosity comparison with Brookfield viscometer. It is filed as physicochemical. The method, then: Using water (ion-exchanged water), an aqueous solution of triacetin, and an aqueous solution of sodium alginate which is a typical viscosity enhancing polysaccharide (KIMICA Corporation, Grade: IL-2), viscosity comparison was made. Viscosity was measured with a Brookfield viscometer (product of TOKIMEC INC., Model BM).

Data set [3] relates to Beagles. The data set can be described thus: Test 2: Pylorus occlusion test (gastric emptying, Evans blue recovery from duodenum). It is filed as in vivo. The note with it: for suppression of quantitative gastric emptying in comparison with physiological saline: 50 mL test fluid into stomach; for percent emptied: after 50 minutes, almost all physiological saline emptied by about 30 minutes. How it is done:
To 10 mL of triacetin (Wako Pure Chemical Industries, Ltd.), 40 mL of water was added to make a total volume of 50 mL, thereby making test fluid A.
Ten milliliters of olive oil (Wako Pure Chemical Industries, Ltd.) and 10 mL of propylene glycol were mixed and water was added to make a total volume of 50 mL, thereby making test fluid B.
Half a gram of stearic acid (Wako Pure Chemical Industries, Ltd.) and 20 mL of propylene glycol were mixed and water was added to make a total volume of 50 mL, thereby making test fluid C.
Beagles each weighing about 10 kg were given general anesthesia with an injection of Nembutal (Dainippon Pharmaceutical Co., Ltd.) and following middle incision, tubes were inserted into the body of stomach and the duodenum as shown in FIG. 8 and with each tube being passed subcutaneously through the flank to the back, the dogs received a preliminary invasive operation for an experiment under an unanesthetized condition.
Starting six days after the operation when there were no longer the effects of anesthesia and those of the operative invasion and the general condition had recovered, the study of the sample fluids of interest was started. To be more specific, it is well known that the gastric emptying capability is suppressed under an anesthetized condition, so in the Example under consideration, in order to eliminate that effect and also to determine data for a more normal state, an experiment was conducted under a chronic unanesthetized condition.
To each test fluid, 5 mg of Evans blue (Wako Pure Chemical Industries, Ltd.) was added and 50 mL of the mixture was injected into the stomach of each beagle through the tube indicated by 1 in FIG. 8. Similarly, a tube was placed in the duodenum and the test fluid emptied from the stomach was recovered through the tube indicated by 2 in FIG. 8. At given time intervals, the emptied test fluid was recovered by suction (for one minute) through the tube left in place in the duodenum and the Evans blue contained in it was measured for absorbance (DU R640 SPECTRO PHOTOMETER, product of Beckman Inc.) at a wavelength of 605 nm, to thereby measure the concentration of Evans blue in the suctioned fluid; the amount of recovery was used to determine the gastric emptying rate.

In data set [4] the test system is Beagles. Put plainly: Test 3: Measurement of gastric contractile motion by strain gage. It counts as in vivo. How it is done:
Two hundred microliters of triacetin (Wako Pure Chemical Industries, Ltd.) was dissolved in distilled water to make a volume of 20 mL, thereby making test fluid D.
Four milliliters of olive oil (Wako Pure Chemical Industries, Ltd.) was dissolved in distilled water to make a volume of 20 mL, thereby making test fluid E.
Twenty milliliters of distilled water was used as control fluid F.
In order to measure muscular contraction with the strain gage, the submucosa was stretched so that the surface of the mucous membrane would not be incised and the strain gage was buried in the submucosa and sutured thereto, with the wound of incision being closed by a suture.
The tube and the strain gage were subcutaneously guided to the outside of the body from the flank to the back and the dogs received a preliminary invasive operation for an experiment under an unanesthetized condition.
Starting six days after the operation when there were no longer the effects of anesthesia and those of the operative invasion and the general condition had recovered, the study of the sample fluids of interest was started. […]
Note that signals from the strain gage were amplified (VC-11, NIHON KOHDEN) and then AD converted, with the resulting digital data being analyzed with Origin Version 6.5 (OriginLab Corporation). […]

Entries after “also recorded” stand apart in the source; their conditions may differ.

In the case of `CC(=O)OCC(COC(C)=O)OC(C)=O` [Triacetin, triacetin], in data set [1], the “amount that can be dissolved in water without forming an emulsion” value is listed as “about 7%”. Also, the Viscosity is 10.1 mPa · s in data set [2] (0.2% aqueous solution), 10.8 mPa · s in data set [2] (1.0% aqueous solution) and 16.7 mPa · s in data set [2] (5.0% aqueous solution). In addition, the “viscosity enhancement as compared with sodium alginate” value in data set [2] (aqueous solutions) is listed as “considerably less effective in viscosity enhancement”. Further, the “time at which the emptied amount peaked” value with Beagles [3] (50 mL test fluid A into stomach, physiological saline peaked at about 5 minutes) was 10 to 20 min. Also, the pylorus occluding effect result in the data set with Beagles [3] (50 mL test fluid injected into stomach, unanesthetized beagles, physiological saline as comparison) is “markedly effective in occluding the pylorus”. Further, the “suppression of quantitative gastric emptying in comparison with physiological saline” value with Beagles [3] is given as “obviously suppressed”. Besides, the percent emptied result in the data set with Beagles [3] is listed as “about 5%”. Further, in the data set with Beagles [4] (20 μL/kg injected into stomach in phase III, fasted unanesthetized beagles), the “change in amplitude and frequency of contractions (contractile motion of the stomach)” value is “obvious suppression of the contractile motion; also recorded: decreased both the amplitude and frequency of contractions”. Also, the “duration of the suppression of contractile motion after injection” value with Beagles [4] (20 μL/kg, change occurred immediately after the injection) is “about three”.

For the compound `CCCCCCCCCCCCCCCCCC(=O)O` [stearic acid, reference compound], in the data set on Beagles [3], the “suppression of quantitative gastric emptying in comparison with physiological saline” value is “obvious suppression” and the percent emptied result is recorded as “about 10%”.
